In patent US20220389061A1, “IMMUNOMODULATORS” (priority 2019, published 2022):
pIC50: −log10 of the molar value. Starred links: 1 amine or outer side, 2 acyl side, 3 side chain; linkers in the order of their positions; H or OH if unused. Positions of bridges follow the written chain, without caps; N, C: chain ends. Non-standard residues stand in square brackets, D forms with d. Residues, ends and D or L forms follow the SMILES beside them. Groups on a side chain read outwards from the residue. *: point of attachment. Trp(1-CH2CO2Me) = COC(=O)Cn1cc(C[C@H](N)C(=O)O)c2ccccc21; Trp(1-CH2COOH) = N[C@@H](Cc1cn(CC(=O)O)c2ccccc12)C(=O)O; Benzoyl(2-(4-MeOPh)) = COc1ccc(-c2ccccc2C(=O)*)cc1; X18 = O=[N+]([O-])c1ccc(NC(=S)*)c(Cl)c1; NH(2-CF3-phenyl) = FC(F)(F)c1ccccc1N*; X63 = COc1cc([N+](=O)[O-])ccc1NC(=S)*; 2Naphthoyl = O=C(c1ccc2ccccc2c1)*; X50 = COc1cc(NC(=S)*)ccc1-c1cnco1; Hyp = O=C(O)[C@@H]1C[C@@H](O)CN1; X32 = c1ccc2c(c1)Cc1cc(N*)ccc1-2; X34 = O=C(c1c2ccccc2cc2ccccc12)*; NMeNle = CCCC[C@H](NC)C(=O)O; X20 = O=C(Oc1ccc2ccccc2c1)*; X93 = c1cc2c(c(N*)c1)CCCC2; X74 = Cc1cc(C)c(N*)c(C)c1; NMeA = CN[C@@H](C)C(=O)O; Dab = NCC[C@H](N)C(=O)O; Dap = NC[C@H](N)C(=O)O; X15 = Cc1ccc(Cl)cc1N*; CO = O=C([*:1])[*:2]

molecular target: T1, PD-1/PD-L1 (Homo sapiens, UniProt Q9NZQ7); experiment: PD-1/PD-L1 Homogenous Time-Resolved Fluorescence (HTRF) binding assay; conditions: not given
T1 construct: TVMV protease site linker (C); made in house; host or cells: HEK293T cells
Method in brief: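 Compounds preincubated 15 min with PD-L1-His (10 nM final), then PD-1-Ig (20 nM final) added for 15 min in dPBS with 0.1% BSA, 0.05% Tween-20. Detection by Eu-cryptate anti-Ig (1 nM) and APC anti-His (20 nM) HTRF.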

T1 sequence (Q9NZQ7 18-239): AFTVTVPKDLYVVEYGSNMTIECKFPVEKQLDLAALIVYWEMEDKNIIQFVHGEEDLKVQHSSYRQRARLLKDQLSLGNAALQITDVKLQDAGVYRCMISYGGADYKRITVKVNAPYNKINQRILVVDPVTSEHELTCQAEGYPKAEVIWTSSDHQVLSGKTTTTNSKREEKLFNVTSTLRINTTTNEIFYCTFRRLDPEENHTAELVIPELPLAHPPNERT

In order of rising pIC50:
1. CCCC[C@H]1C(=O)N(C)[C@@H](CCCC)C(=O)N[C@@H](CC(C)C)C(=O)N[C@H](C(=O)NCC(N)=O)CSCC(=O)N[C@@H](Cc2ccc(O)cc2)C(=O)N(C)[C@@H](C)C(=O)N[C@@H](CC(N)=O)C(=O)N2CCC[C@H]2C(=O)N[C@@H](CNC(=O)Nc2ccc3c(c2)Cc2ccccc2-3)C(=O)N[C@@H](CC(C)C)C(=O)N2C[C@H](O)C[C@H]2C(=O)N[C@@H](Cc2c[nH]c3ccccc23)C(=O)N[C@@H](CCNC(=O)Nc2ccc3c(c2)Cc2ccccc2-3)C(=O)N[C@@H](Cc2cn(CC(=O)O)c3ccccc23)C(=O)N1C [Example 2008] ({CH2CO}-Y[NMeA]NP[Dap]([CO-X32])L[Hyp]W[Dab]([CO-X32])[Trp(1-CH2COOH)][NMeNle][NMeNle]LCG-NH2; thioether N-14)  7.33
2. CCCC[C@H]1C(=O)N(C)[C@@H](CCCC)C(=O)N[C@@H](CC(C)C)C(=O)N[C@H](C(=O)NCC(N)=O)CSCC(=O)N[C@@H](Cc2ccc(O)cc2)C(=O)N(C)[C@@H](C)C(=O)N[C@@H](CC(N)=O)C(=O)N2CCC[C@H]2C(=O)N[C@@H](CNC(=S)Nc2ccc([N+](=O)[O-])cc2Cl)C(=O)N[C@@H](CC(C)C)C(=O)N2C[C@H](O)C[C@H]2C(=O)N[C@@H](Cc2c[nH]c3ccccc23)C(=O)N[C@@H](CCNC(=S)Nc2ccc([N+](=O)[O-])cc2Cl)C(=O)N[C@@H](Cc2cn(CC(=O)O)c3ccccc23)C(=O)N1C [Example 1103] ({CH2CO}-Y[NMeA]NP[Dap](X18)L[Hyp]W[Dab](X18)[Trp(1-CH2COOH)][NMeNle][NMeNle]LCG-NH2; thioether N-14)  8.19
3. CCCC[C@H]1C(=O)N(C)[C@@H](CCCC)C(=O)N[C@@H](CC(C)C)C(=O)N[C@H](C(=O)NCC(N)=O)CSCC(=O)N[C@@H](Cc2ccc(O)cc2)C(=O)N(C)[C@@H](C)C(=O)N[C@@H](CC(N)=O)C(=O)N2CCC[C@H]2C(=O)N[C@@H](CNC(=O)Oc2ccc3ccccc3c2)C(=O)N[C@@H](CC(C)C)C(=O)N2C[C@H](O)C[C@H]2C(=O)N[C@@H](Cc2c[nH]c3ccccc23)C(=O)N[C@@H](CCN)C(=O)N[C@@H](Cc2cn(CC(=O)O)c3ccccc23)C(=O)N1C [Example 3045] ({CH2CO}-Y[NMeA]NP[Dap](X20)L[Hyp]W[Dab][Trp(1-CH2COOH)][NMeNle][NMeNle]LCG-NH2; thioether N-14)  8.89
4. CCCC[C@H]1C(=O)N(C)[C@@H](CCCC)C(=O)N[C@@H](CC(C)C)C(=O)N[C@H](C(=O)NCC(N)=O)CSCC(=O)N[C@@H](Cc2ccc(O)cc2)C(=O)N(C)[C@@H](C)C(=O)N[C@@H](CC(N)=O)C(=O)N2CCC[C@H]2C(=O)N[C@@H](CNC(=O)Nc2cccc3c2CCCC3)C(=O)N[C@@H](CC(C)C)C(=O)N2C[C@H](O)C[C@H]2C(=O)N[C@@H](Cc2c[nH]c3ccccc23)C(=O)N[C@@H](CCNC(=O)Nc2cccc3c2CCCC3)C(=O)N[C@@H](Cc2cn(CC(=O)O)c3ccccc23)C(=O)N1C [Example 3015] ({CH2CO}-Y[NMeA]NP[Dap]([CO-X93])L[Hyp]W[Dab]([CO-X93])[Trp(1-CH2COOH)][NMeNle][NMeNle]LCG-NH2; thioether N-14)  9.15

same assay, conditions: PD-L1-His 10 nM pre-incubated with inhibitor, PD-1-Ig 20 nM; read-out: HTRF IC50

In order of rising pIC50:
1. CCCC[C@H]1C(=O)N(C)[C@@H](CCCC)C(=O)N[C@@H](CC(C)C)C(=O)N[C@H](C(=O)NCC(N)=O)CSCC(=O)N[C@@H](Cc2ccc(O)cc2)C(=O)N(C)[C@@H](C)C(=O)N[C@@H](CC(N)=O)C(=O)N2CCC[C@H]2C(=O)N[C@@H](CNC(=O)c2c3ccccc3cc3ccccc23)C(=O)N[C@@H](CC(C)C)C(=O)N2C[C@H](O)C[C@H]2C(=O)N[C@@H](Cc2c[nH]c3ccccc23)C(=O)N[C@@H](CCNC(=O)c2c3ccccc3cc3ccccc23)C(=O)N[C@@H](Cc2cn(CC(=O)OC)c3ccccc23)C(=O)N1C [Example 2006] ({CH2CO}-Y[NMeA]NP[Dap](X34)L[Hyp]W[Dab](X34)[Trp(1-CH2CO2Me)][NMeNle][NMeNle]LCG-NH2; thioether N-14)  5.80
2. CCCC[C@H]1C(=O)N(C)[C@@H](CCCC)C(=O)N[C@@H](CC(C)C)C(=O)N[C@H](C(=O)NCC(N)=O)CSCC(=O)N[C@@H](Cc2ccc(O)cc2)C(=O)N(C)[C@@H](C)C(=O)N[C@@H](CC(N)=O)C(=O)N2CCC[C@H]2C(=O)N[C@@H](CNC(=O)c2ccccc2-c2ccc(OC)cc2)C(=O)N[C@@H](CC(C)C)C(=O)N2C[C@H](O)C[C@H]2C(=O)N[C@@H](Cc2c[nH]c3ccccc23)C(=O)N[C@@H](CCNC(=O)c2ccccc2-c2ccc(OC)cc2)C(=O)N[C@@H](Cc2cn(CC(=O)OC)c3ccccc23)C(=O)N1C [Example 1050] ({CH2CO}-Y[NMeA]NP[Dap](Benzoyl(2-(4-MeOPh)))L[Hyp]W[Dab](Benzoyl(2-(4-MeOPh)))[Trp(1-CH2CO2Me)][NMeNle][NMeNle]LCG-NH2; thioether N-14)  7.41
3. CCCC[C@H]1C(=O)N(C)[C@@H](CCCC)C(=O)N[C@@H](CC(C)C)C(=O)N[C@H](C(=O)NCC(N)=O)CSCC(=O)N[C@@H](Cc2ccc(O)cc2)C(=O)N(C)[C@@H](C)C(=O)N[C@@H](CC(N)=O)C(=O)N2CCC[C@H]2C(=O)N[C@@H](CNC(=O)Nc2ccccc2C(F)(F)F)C(=O)N[C@@H](CC(C)C)C(=O)N2C[C@H](O)C[C@H]2C(=O)N[C@@H](Cc2c[nH]c3ccccc23)C(=O)N[C@@H](CCNC(=O)Nc2ccccc2C(F)(F)F)C(=O)N[C@@H](Cc2cn(CC(=O)O)c3ccccc23)C(=O)N1C [Example 1137] ({CH2CO}-Y[NMeA]NP[Dap]([CO-NH(2-CF3-phenyl)])L[Hyp]W[Dab]([CO-NH(2-CF3-phenyl)])[Trp(1-CH2COOH)][NMeNle][NMeNle]LCG-NH2; thioether N-14)  7.70
4. CCCC[C@H]1C(=O)N(C)[C@@H](CCCC)C(=O)N[C@@H](CC(C)C)C(=O)N[C@H](C(=O)NCC(N)=O)CSCC(=O)N[C@@H](Cc2ccc(O)cc2)C(=O)N(C)[C@@H](C)C(=O)N[C@@H](CC(N)=O)C(=O)N2CCC[C@H]2C(=O)N[C@@H](CNC(=O)Nc2cc(Cl)ccc2C)C(=O)N[C@@H](CC(C)C)C(=O)N2C[C@H](O)C[C@H]2C(=O)N[C@@H](Cc2c[nH]c3ccccc23)C(=O)N[C@@H](CCN)C(=O)N[C@@H](Cc2cn(CC(=O)O)c3ccccc23)C(=O)N1C [Example 1106] ({CH2CO}-Y[NMeA]NP[Dap]([CO-X15])L[Hyp]W[Dab][Trp(1-CH2COOH)][NMeNle][NMeNle]LCG-NH2; thioether N-14)  8.00
5. CCCC[C@H]1C(=O)N(C)[C@@H](CCCC)C(=O)N[C@@H](CC(C)C)C(=O)N[C@H](C(=O)NCC(N)=O)CSCC(=O)N[C@@H](Cc2ccc(O)cc2)C(=O)N(C)[C@@H](C)C(=O)N[C@@H](CC(N)=O)C(=O)N2CCC[C@H]2C(=O)N[C@@H](CNC(=O)c2ccc3ccccc3c2)C(=O)N[C@@H](CC(C)C)C(=O)N2C[C@H](O)C[C@H]2C(=O)N[C@@H](Cc2c[nH]c3ccccc23)C(=O)N[C@@H](CCNC(=O)c2ccc3ccccc3c2)C(=O)N[C@@H](Cc2cn(CC(=O)OC)c3ccccc23)C(=O)N1C [Example 3009] ({CH2CO}-Y[NMeA]NP[Dap](2Naphthoyl)L[Hyp]W[Dab](2Naphthoyl)[Trp(1-CH2CO2Me)][NMeNle][NMeNle]LCG-NH2; thioether N-14)  8.05
6. CCCC[C@H]1C(=O)N(C)[C@@H](CCCC)C(=O)N[C@@H](CC(C)C)C(=O)N[C@H](C(=O)NCC(N)=O)CSCC(=O)N[C@@H](Cc2ccc(O)cc2)C(=O)N(C)[C@@H](C)C(=O)N[C@@H](CC(N)=O)C(=O)N2CCC[C@H]2C(=O)N[C@@H](CNC(=S)Nc2ccc(-c3cnco3)c(OC)c2)C(=O)N[C@@H](CC(C)C)C(=O)N2C[C@H](O)C[C@H]2C(=O)N[C@@H](Cc2c[nH]c3ccccc23)C(=O)N[C@@H](CCN)C(=O)N[C@@H](Cc2cn(CC(=O)O)c3ccccc23)C(=O)N1C [Example 1028] ({CH2CO}-Y[NMeA]NP[Dap](X50)L[Hyp]W[Dab][Trp(1-CH2COOH)][NMeNle][NMeNle]LCG-NH2; thioether N-14)  8.36
7. CCCC[C@H]1C(=O)N(C)[C@@H](CCCC)C(=O)N[C@@H](CC(C)C)C(=O)N[C@H](C(=O)NCC(N)=O)CSCC(=O)N[C@@H](Cc2ccc(O)cc2)C(=O)N(C)[C@@H](C)C(=O)N[C@@H](CC(N)=O)C(=O)N2CCC[C@H]2C(=O)N[C@@H](CNC(=O)c2ccccc2-c2ccc(OC)cc2)C(=O)N[C@@H](CC(C)C)C(=O)N2C[C@H](O)C[C@H]2C(=O)N[C@@H](Cc2c[nH]c3ccccc23)C(=O)N[C@@H](CCN)C(=O)N[C@@H](Cc2cn(CC(=O)O)c3ccccc23)C(=O)N1C [Example 1063] ({CH2CO}-Y[NMeA]NP[Dap](Benzoyl(2-(4-MeOPh)))L[Hyp]W[Dab][Trp(1-CH2COOH)][NMeNle][NMeNle]LCG-NH2; thioether N-14)  8.43
8. CCCC[C@H]1C(=O)N(C)[C@@H](CCCC)C(=O)N[C@@H](CC(C)C)C(=O)N[C@H](C(=O)NCC(N)=O)CSCC(=O)N[C@@H](Cc2ccc(O)cc2)C(=O)N(C)[C@@H](C)C(=O)N[C@@H](CC(N)=O)C(=O)N2CCC[C@H]2C(=O)N[C@@H](CNC(=O)Nc2c(C)cc(C)cc2C)C(=O)N[C@@H](CC(C)C)C(=O)N2C[C@H](O)C[C@H]2C(=O)N[C@@H](Cc2c[nH]c3ccccc23)C(=O)N[C@@H](CCNC(=O)Nc2c(C)cc(C)cc2C)C(=O)N[C@@H](Cc2cn(CC(=O)O)c3ccccc23)C(=O)N1C [Example 1081] ({CH2CO}-Y[NMeA]NP[Dap]([CO-X74])L[Hyp]W[Dab]([CO-X74])[Trp(1-CH2COOH)][NMeNle][NMeNle]LCG-NH2; thioether N-14)  8.57
9. CCCC[C@H]1C(=O)N(C)[C@@H](CCCC)C(=O)N[C@@H](CC(C)C)C(=O)N[C@H](C(=O)NCC(N)=O)CSCC(=O)N[C@@H](Cc2ccc(O)cc2)C(=O)N(C)[C@@H](C)C(=O)N[C@@H](CC(N)=O)C(=O)N2CCC[C@H]2C(=O)N[C@@H](CNC(=S)Nc2ccc([N+](=O)[O-])cc2OC)C(=O)N[C@@H](CC(C)C)C(=O)N2C[C@H](O)C[C@H]2C(=O)N[C@@H](Cc2c[nH]c3ccccc23)C(=O)N[C@@H](CCN)C(=O)N[C@@H](Cc2cn(CC(=O)O)c3ccccc23)C(=O)N1C [Example 1112] ({CH2CO}-Y[NMeA]NP[Dap](X63)L[Hyp]W[Dab][Trp(1-CH2COOH)][NMeNle][NMeNle]LCG-NH2; thioether N-14)  8.92
